The record followed here is patent US20260102501A1, “ANTI-CANCER NUCLEAR HORMONE RECEPTOR-TARGETING COMPOUNDS” (Nuvation Bio Inc., priority 2022, published 2026).

Substitutions are numbered along the chain they refer to. Where a name gives a salt, the structure may show the parent alone. Read-outs that look alike come from different tables or passages of the source.

The target of test [1] is T1, Progesterone PR-B receptors from human breast carcinoma T47D cells (Homo sapiens, UniProt P06401).
T1 sequence (P06401 1-933): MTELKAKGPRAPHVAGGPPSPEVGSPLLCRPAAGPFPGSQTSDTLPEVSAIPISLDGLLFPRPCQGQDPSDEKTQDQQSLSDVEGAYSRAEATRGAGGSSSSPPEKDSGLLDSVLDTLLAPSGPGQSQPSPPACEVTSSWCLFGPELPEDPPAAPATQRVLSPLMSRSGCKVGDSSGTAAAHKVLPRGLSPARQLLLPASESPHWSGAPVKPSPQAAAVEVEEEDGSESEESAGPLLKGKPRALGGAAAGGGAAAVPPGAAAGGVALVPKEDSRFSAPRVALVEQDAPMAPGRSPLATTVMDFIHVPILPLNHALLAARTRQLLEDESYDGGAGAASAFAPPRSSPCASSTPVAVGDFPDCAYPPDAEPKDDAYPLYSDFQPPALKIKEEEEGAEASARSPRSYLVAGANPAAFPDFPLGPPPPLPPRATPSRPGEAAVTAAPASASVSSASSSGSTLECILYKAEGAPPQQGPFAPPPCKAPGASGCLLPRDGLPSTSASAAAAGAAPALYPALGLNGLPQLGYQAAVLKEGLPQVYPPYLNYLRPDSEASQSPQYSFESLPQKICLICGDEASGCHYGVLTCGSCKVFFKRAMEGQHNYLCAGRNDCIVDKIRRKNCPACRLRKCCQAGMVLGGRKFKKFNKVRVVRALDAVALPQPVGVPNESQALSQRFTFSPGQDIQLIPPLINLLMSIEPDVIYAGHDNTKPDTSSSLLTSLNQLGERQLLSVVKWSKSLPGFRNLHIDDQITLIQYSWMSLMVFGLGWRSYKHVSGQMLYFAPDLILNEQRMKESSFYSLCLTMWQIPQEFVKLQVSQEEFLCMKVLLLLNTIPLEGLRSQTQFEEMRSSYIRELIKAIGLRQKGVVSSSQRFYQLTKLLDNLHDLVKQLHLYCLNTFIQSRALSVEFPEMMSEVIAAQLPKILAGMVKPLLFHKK
The test can be described thus: PR binding assay ([3H] Progesterone displacement).

In the next test the test system is T47D cells. Briefly: Cell viability assay (CellTiterGlo). The class given is cell-based. The note with it: Homo sapiens, 144 h. For orientation: Cellular ATP, detected with luciferase, serves as a proxy for viable cell number.
In another test the test system is LNCap cells. Briefly: Cell viability assay (CellTiterGlo). The note with it: Homo sapiens, 144 h. The class given is cell-based.
Test [2] addresses T2, ligand binding domain of the glucocorticoid receptor (HEK293 cells stably expressing) (Homo sapiens, UniProt P04150).
T2 sequence (P04150 524-758 limits assumed): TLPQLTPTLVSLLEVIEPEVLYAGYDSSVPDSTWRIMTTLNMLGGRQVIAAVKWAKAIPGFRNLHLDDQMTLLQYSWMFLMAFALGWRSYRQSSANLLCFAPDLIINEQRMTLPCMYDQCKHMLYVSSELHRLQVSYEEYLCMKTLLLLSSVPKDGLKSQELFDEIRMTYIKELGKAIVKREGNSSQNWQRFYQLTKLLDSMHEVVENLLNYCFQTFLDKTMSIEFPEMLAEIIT
Briefly: GR antagonism assay (luciferase reporter). In general terms: A reporter such as luciferase makes a cellular process visible.

The target in test [3] is T3, AR (cytosol from LnCaP cells) (Homo sapiens, UniProt P10275, T878A).
T3 sequence (P10275 1-920 T878A): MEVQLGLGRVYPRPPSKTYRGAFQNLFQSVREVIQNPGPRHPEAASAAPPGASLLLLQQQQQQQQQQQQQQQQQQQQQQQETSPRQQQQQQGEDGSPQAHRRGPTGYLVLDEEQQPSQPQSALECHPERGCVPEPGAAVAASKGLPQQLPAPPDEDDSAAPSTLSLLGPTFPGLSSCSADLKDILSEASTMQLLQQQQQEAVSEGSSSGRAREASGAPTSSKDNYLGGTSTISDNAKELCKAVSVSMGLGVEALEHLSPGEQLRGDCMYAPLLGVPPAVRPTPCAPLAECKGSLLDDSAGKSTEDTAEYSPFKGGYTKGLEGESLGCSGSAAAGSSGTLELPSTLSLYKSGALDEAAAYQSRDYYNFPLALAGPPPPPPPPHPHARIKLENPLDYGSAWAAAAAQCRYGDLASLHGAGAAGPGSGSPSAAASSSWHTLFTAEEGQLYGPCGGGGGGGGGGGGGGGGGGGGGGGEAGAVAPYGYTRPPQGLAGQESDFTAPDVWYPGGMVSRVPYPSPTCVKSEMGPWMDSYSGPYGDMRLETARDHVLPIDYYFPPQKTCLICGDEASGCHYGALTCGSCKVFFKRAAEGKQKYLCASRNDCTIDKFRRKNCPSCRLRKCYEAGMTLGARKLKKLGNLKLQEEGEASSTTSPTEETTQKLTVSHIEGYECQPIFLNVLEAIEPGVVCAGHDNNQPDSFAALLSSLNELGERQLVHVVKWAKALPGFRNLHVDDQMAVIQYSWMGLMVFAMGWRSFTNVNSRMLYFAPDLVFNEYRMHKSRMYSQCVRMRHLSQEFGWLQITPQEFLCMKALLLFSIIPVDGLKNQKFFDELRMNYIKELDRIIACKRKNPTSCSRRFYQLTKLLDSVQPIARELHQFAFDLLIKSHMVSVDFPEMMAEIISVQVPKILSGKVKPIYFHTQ
Briefly: AR binding assay (3H-R1881 displacement).
Procedure: The plate was then centrifuged at 3000 rpm for 30 minutes at 4° C.

The subject of a further test is IEC6 cells. The test can be described thus: Cell viability assay (CellTiterGlo). The note with it: Rattus norvegicus, IEC-6, 144 h, read-out: IEC-6 (IC50, nM).
The target of test [4] is T4, full-length androgen receptor (HEK293 cells stably expressing) (Homo sapiens, UniProt P10275).
T4 sequence (P10275 1-920): T3 sequence (P10275 1-920 T878A) with A878T
Briefly: AR antagonism assay (luciferase reporter).
Procedure: AR antagonism assay: To evaluate AR antagonist activity, test compound was added to the assay plate (top dose 10 μM, 3 fold serial dilution, 10 point dose response). HEK293 cells stably expressing the full-length androgen receptor were seeded at a density of 20000 cells/well in the assay plate. The assay plate was then incubated at room temperature for 10 minutes and at 37° C. 5% CO2 for 20 minutes. Testosterone was added to the assay plate at 1 nM final concentration and the assay plate incubated at 37° C., 5% CO2 for 20 h. […] Steady-glo was added to the assay plate and mixed at room temperature for 20 minutes on an orbital shaker, before reading out on the En Vision plate reader.

Another test has as its system 22Rv1 cells. The test can be described thus: Cell viability assay (CellTiterGlo). The note with it: Homo sapiens, 22Rv1, 144 h, read-out: 22RV1 (IC50, nM).
Where [5] appears, read: 6 days incubation, CellTiterGlo, read-out: LNCap (IC50).

Procedure for 22Rv1 cells: Cell viability assay: LNCap, 22Rv1, MCF7, MDAMB361, T47D, and IEC6 cells were seeded at a density of 500-2000 cells/well in 96 well plates, and a ‘T0’ (timepoint 0) was included along with the assay plate. The plates were then incubated at 37° C., 5% CO2 in a cell culture incubator overnight. On the next day, the ‘T0’ plate was assayed using CellTiterGlo (Promega, Inc) according to the manufacturer's instructions. The appropriate compounds were diluted in DMSO and added to the assay plate (final DMSO concentration of 0.1-0.2%) on the next day. The assay plates were incubated for 6 days at 37° C., 5% CO2. After the incubation period, the plates were assayed using CellTiterGlo (Promega, Inc) according to the manufacturer's instructions and luminescence was read on the En Vision plate reader. […] GraphPadPrism was used to analyze the data and determine GI50/IC50 values.

By IC50 is commonly meant the concentration that inhibits the measured activity by half. Take `CC[C@@]1(OC(=O)N2CCN(CCCCCCN(C)c3ccc([C@H]4C[C@@]5(C)[C@@H](CC[C@]5(OC(C)=O)C(C)=O)[C@@H]5CCC6=CC(=O)CCC6=C54)cc3)CC2)C(=O)OCc2c1cc1n(c2=O)Cc2cc3cc(OC)ccc3nc2-1` [Compound 24, (S)-4-Ethyl-9-methoxy-3,14-dioxo-3,4,12,14-tetrahydro-1H-pyrano[3′,4′:6,7]indolizino[1,2-b]quinolin-4-yl 4-(6-((4-((8S,11R,13S,14S,17R)-17-acetoxy-17-acetyl-13-methyl-3-oxo-2,3,6,7,8,11,12,13,14,15,16,17-dodecahydro-1H-cyclopenta[a]phenanthren-11-yl)phenyl)(methyl)amino)hexyl)piperazine-1-carboxylate Formate]: the IC50 in test [1] was less than 10 nM; with T47D cells (read-out: T47D (IC50)), 101 to 1000 nM; with LNCap cells (read-out: LNCap (IC50)), 101 to 1000 nM.
As for `CC[C@@]1(O)C(=O)OCc2c1cc1n(c2=O)Cc2cc3c(CN(C)C)c(OC(=O)N4C[C@H](C)N(C(=O)[C@H](CCCNC(N)=O)NC(=O)[C@@H](NCCCCCCN(C)c5ccc([C@H]6C[C@@]7(C)[C@@H](CC[C@]7(OC(C)=O)C(C)=O)[C@@H]7CCC8=CC(=O)CCC8=C76)cc5)C(C)C)C[C@H]4C)ccc3nc2-1` [Compound 35], the IC50 was 10 to 100 nM in test [2]; less than 10 nM in test [1]; 10 to 100 nM in test [3]; 101 to 1000 nM with T47D cells (read-out: T47D (IC50, nM)); more than 1000 nM with LNCap cells (read-out: LNCap (IC50, nM)); more than 1000 nM in the test with IEC6 cells. In test [4], this compound came in with an IC50 of more than 1000 nM.
In the case of `CC[C@@]1(O)C(=O)OCc2c1cc1n(c2=O)Cc2c-1nc1cc(F)c(C)c3c1c2[C@@H](NC(=O)CN1CCN(CCCCCCN(C)c2ccc([C@H]4C[C@@]5(C)[C@@H](CC[C@]5(OC(C)=O)C(C)=O)[C@@H]5CCC6=CC(=O)CCC6=C54)cc2)CC1)CC3` [Compound 37, (8S,11R,13S,14S,17R)-17-acetyl-11-(4-((6-(4-(2-(((1S,9S)-9-ethyl-5-fluoro-9-hydroxy-4-methyl-10,13-dioxo-2,3,9,10,13,15-hexahydro-1H,12H-benzo[de]pyrano[3′,4′:6,7]indolizino[1,2-b]quinolin-1-yl)amino)-2-oxoethyl)piperazin-1-yl)hexyl)(methyl)amino)phenyl)-13-methyl-3-oxo-2,3,6,7,8,11,12,13,14,15,16,17-dodecahydro-1H-cyclopenta[a]phenanthren-17-yl acetate], the IC50 in test [2] was 10 to 100 nM; in test [1], less than 10 nM; in test [3], less than 10 nM; in the test on T47D cells (6 days incubation, CellTiterGlo, read-out: T47D (IC50)), 10 to 100 nM; in the test on LNCap cells (setting [5]), 101 to 1000 nM; with IEC6 cells, 101 to 1000 nM. In test [4], the IC50 lay within 101 to 1000 nM.
For the compound `CC[C@@]1(O)C(=O)OCc2c1cc1n(c2=O)Cc2c-1nc1cc(F)c(C)c3c1c2[C@@H](NC(=O)COC(=O)N1CCN(CCCCCCN(C)c2ccc([C@H]4C[C@@]5(C)[C@@H](CC[C@]5(OC(C)=O)C(C)=O)[C@@H]5CCC6=CC(=O)CCC6=C54)cc2)CC1)CC3` [Compound 42, 2-(((1S,9S)-9-ethyl-5-fluoro-9-hydroxy-4-methyl-10,13-dioxo-2,3,9,10,13,15-hexahydro-1H,12H-benzo[de]pyrano[3′,4′:6,7]indolizino[1,2-b]quinolin-1-yl)amino)-2-oxoethyl 4-(6-((4-((8S,11R,13S,14S,17R)-17-acetoxy-17-acetyl-13-methyl-3-oxo-2,3,6,7,8,11,12,13,14,15,16,17-dodecahydro-1H-cyclopenta[a]phenanthren-11-yl)phenyl)(methyl)amino)hexyl)piperazine-1-carboxylate], the IC50 in test [2] is 10 to 100 nM; in test [1], less than 10 nM; in test [3], 10 to 100 nM; with 22Rv1 cells, 101 to 1000 nM; in the test on LNCap cells (setting [5]) it was 101 to 1000 nM; in the test with IEC6 cells, more than 1000 nM. The compound also displayed a 50% inhibitory concentration (IC50) in test [4] of 101 to 1000 nM.
Regarding `CC[C@@]1(O)C(=O)OCc2c1cc1n(c2=O)Cc2cc3c(CN4CCN(CCCCCCC5CCN(c6ccc(C(=O)N[C@H]7CC[C@H](N(C)c8ccc(C#N)c(Cl)c8)CC7)nn6)CC5)CC4)c(O)ccc3nc2-1` [Compound 56, N-((1r,4r)-4-((3-chloro-4-cyanophenyl)(methyl)amino)cyclohexyl)-6-(4-(6-(4-(((S)-4-ethyl-4,9-dihydroxy-3,14-dioxo-3,4,12,14-tetrahydro-1H-pyrano[3′,4′:6,7]indolizino[1,2-b]quinolin-10-yl)methyl)piperazin-1-yl)hexyl)piperidin-1-yl)pyridazine-3-carboxamide], the IC50 in test [1] fell in the range of 10 to 100 nM; in test [3], 101 to 1000 nM; in the test on 22Rv1 cells, 10 to 100 nM; in the test on LNCap cells (setting [5]), 10 to 100 nM; in the test on IEC6 cells, 101 to 1000 nM; in test [4], 101 to 1000 nM.
